Source: PubChem BioAssay (NCI)
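Results reflect a 48-hour exposure of cells in 96-well plates to compound at five concentrations. GI50 marks 50% less growth. TGI marks complete inhibition of growth.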

Key:
Assay in all cases: NCI-60 cell line screen, 48 h
HL-60(TB) leukemia = tested on: HL-60(TB) leukemia
HOP-62 NSCLC = tested on: HOP-62 NSCLC
KM12 colon = tested on: KM12 colon
MALME-3M melanoma = tested on: MALME-3M melanoma
NCI-H522 lung = tested on: NCI-H522 lung
SF-295 CNS = tested on: SF-295 CNS
SK-MEL-2 melanoma = tested on: SK-MEL-2 melanoma
SK-MEL-5 melanoma = tested on: SK-MEL-5 melanoma
SK-OV-3 ovarian = tested on: SK-OV-3 ovarian
MDA-MB-231 breast = tested on: MDA-MB-231 breast

Structure (SMILES) | TGI (HL-60(TB) leukemia) [µM] | TGI (HOP-62 NSCLC) [µM] | TGI (KM12 colon) [µM] | TGI (MALME-3M melanoma) [µM] | TGI (NCI-H522 lung) [µM] | TGI (SF-295 CNS) [µM] | TGI (SK-MEL-2 melanoma) [µM] | TGI (SK-MEL-5 melanoma) [µM] | TGI (SK-OV-3 ovarian) [µM] | TGI (MDA-MB-231 breast) [µM] | GI50 (HL-60(TB) leukemia) [µM] | GI50 (HOP-62 NSCLC) [µM] | GI50 (KM12 colon) [µM] | GI50 (MALME-3M melanoma) [µM] | GI50 (MDA-MB-231 breast) [µM] | GI50 (SF-295 CNS) [µM] | GI50 (SK-MEL-2 melanoma) [µM] | GI50 (SK-MEL-5 melanoma) [µM] | GI50 (SK-OV-3 ovarian) [µM]
C[N+](C)(C)CC(=O)N/N=C(/C=C/c1ccccc1)CC1OC(=O)c2ccccc21 (configuration not stated) | > 100 | > 100 | > 100 | > 100 | > 100 | > 10 | > 100 | > 100 | > 100 |  |  |  |  |  |  |  |  |  | 
CCc1ccc(Cc2ccc(CC)c(NC(=O)C(=O)Cc3nc4ccccc4nc3C)c2CC)c(CC)c1NC(=O)C(=O)Cc1nc2ccccc2nc1C | > 100 | > 100 | > 100 | > 100 | > 100 |  | > 100 | > 100 | > 100 |  |  |  |  |  |  |  |  |  | 
Nc1nc2nc3c(nc2c(=O)[nH]1)CN(c1ccc(C(=O)O)cc1)C3=O |  | 83.7 | > 100 | > 100 | > 100 | > 100 | > 100 | > 100 | > 100 | > 100 |  |  |  |  |  |  |  |  | 
CCCCNC(=S)Nn1c(-c2ccccc2)nc2ccccc2c1=O | > 100 | > 100 | > 100 | > 100 | > 100 | > 100 | > 100 | > 100 | > 100 |  |  |  |  |  |  |  |  |  | 
CN(C)CCCn1cnc2ncccc2c1=O |  | > 100 | > 100 | > 100 | > 100 | > 100 | > 100 | > 100 | > 100 |  |  |  |  |  |  |  |  |  | 
CCCOC(=O)C1CCC(=O)N1C(=O)C(Cl)Cl (configuration not stated) | > 100 | > 100 | > 100 | > 100 | > 100 | > 100 | > 100 | > 100 | > 100 |  |  |  |  |  |  |  |  |  | 
COC1OC(OC)C2C(c3c(C)cc(C)cc3C)=NOC12 (configuration not stated) | > 100 | > 100 | > 100 | > 100 | > 100 | > 100 | > 100 | > 100 | > 100 |  |  |  |  |  |  |  |  |  | 
COCCNC(=O)C1C(=O)N(CCOC)C(=O)/C1=N/N (configuration not stated) | > 100 |  | > 100 | > 100 | > 100 | > 100 | > 100 |  | > 100 |  |  |  |  |  |  |  |  |  | 
CCCCN(CCCC)C(=Nc1ccccc1)N(CCCC)CCCC | 4.09 | 20.5 | 22.6 | 22.5 | 7.41 | 23.1 | 18.9 |  | 22.6 |  |  |  |  |  |  |  |  |  | 
CCN(CC)CCn1c(=N)n(CC(O)c2ccc(Cl)c(Cl)c2)c2ccccc21 (configuration not stated) | 22.2 | 24.8 | 22.2 | 4.44 |  | 24.1 | 8.32 | 3.15 | 24.1 | 20.2 | 5.12 | 11.8 | 9.86 | 2.23 | 5.16 | 8.87 | 2.93 | 1.73 | 11.9
N#Cc1c([N+](=O)[O-])cc(C(F)(F)F)cc1[N+](=O)[O-] |  | 32.8 | 12.4 | 25.5 | 1.24 | 10.3 | 39.3 | 23.8 | 33.2 |  |  |  |  |  |  |  |  |  | 
